In ChEMBL document CHEMBL1201862, “PubChem BioAssay data set” (2004):
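Dose response: 5 concentrations. Exposure: 48 h. Format: 96-well plates. Endpoint: linear interpolation; highest concentration if not reached. The concentration for 50% growth inhibition is given as GI50.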 Activity calls are given as the source filed them. Rule as the data show it: active = GI50 up to about 1.1 µM and inactive = higher.

Assays:
Assay in all cases: NCI-60 cell line screen, 48 h
HCC 2998 = tested on: HCC 2998
NCI-H460 = tested on: NCI-H460
SN12C = tested on: SN12C
SNB-75 = tested on: SNB-75
HT-29 = tested on: HT-29
LOX IMVI = tested on: LOX IMVI
ACHN = tested on: ACHN
SF-539 = tested on: SF-539
Malme-3M = tested on: Malme-3M
RXF 393 = tested on: RXF 393
OVCAR-5 = tested on: OVCAR-5
MOLT-4 = tested on: MOLT-4
A549 = tested on: A549
UACC-257 = tested on: UACC-257
A498 = tested on: A498
HL-60 = tested on: HL-60
SR = tested on: SR

Measured: GI50

CCOC(=O)C(c1ccsc1)P(=O)(OCC)OCC (configuration not stated)
inactive: HCC 2998 19.5 µM | NCI-H460 14.9 µM | SN12C 13.3 µM | SNB-75 24.1 µM | HT-29 15.9 µM | LOX IMVI 6.5 µM | ACHN 19.6 µM | SF-539 14.2 µM | Malme-3M 23.2 µM | RXF 393 13.1 µM | OVCAR-5 23.1 µM | MOLT-4 > 100 µM | A549 22.4 µM | UACC-257 15.4 µM

COC(=O)CCC(=O)NC1C2CC3CC(C2)CC1C3 (configuration not stated)
inactive: HCC 2998 > 100 µM | NCI-H460 > 100 µM | SN12C > 100 µM | SNB-75 > 43.1 µM | HT-29 > 100 µM | LOX IMVI > 100 µM | ACHN > 100 µM | SF-539 > 100 µM | Malme-3M > 100 µM | A498 > 100 µM | RXF 393 > 100 µM | OVCAR-5 > 100 µM | MOLT-4 > 100 µM | A549 > 100 µM | UACC-257 > 100 µM | HL-60 > 100 µM

Clc1ccc(-c2nnc3c4nnc(-c5ccc(Cl)cc5Cl)n4c4ccccc4n23)c(Cl)c1
inactive: HCC 2998 > 100 µM | NCI-H460 > 100 µM | SN12C > 100 µM | SNB-75 26.5 µM | HT-29 > 100 µM | LOX IMVI > 100 µM | ACHN > 100 µM | SF-539 > 100 µM | Malme-3M > 100 µM | A498 > 100 µM | RXF 393 > 100 µM | OVCAR-5 > 100 µM | MOLT-4 > 100 µM | A549 > 100 µM | UACC-257 > 100 µM

COC(=O)/C(=N\NC(N)=O)C(C#N)c1ccccc1 (configuration not stated)
inactive: HCC 2998 > 100 µM | NCI-H460 > 100 µM | SN12C > 100 µM | SNB-75 > 100 µM | HT-29 > 100 µM | LOX IMVI > 100 µM | ACHN > 100 µM | SF-539 > 100 µM | Malme-3M > 100 µM | A498 > 100 µM | RXF 393 > 100 µM | OVCAR-5 > 100 µM | MOLT-4 > 100 µM | A549 > 100 µM | UACC-257 > 100 µM | HL-60 > 100 µM

Cc1c2ccccc2cc2ccc3oc([N+](=O)[O-])cc3c12
inactive: HCC 2998 > 100 µM | NCI-H460 6.19 µM | SN12C > 100 µM | SNB-75 > 100 µM | HT-29 > 100 µM | LOX IMVI > 100 µM | ACHN 4.73 µM | SF-539 > 100 µM | Malme-3M > 100 µM | A498 5.6 µM | RXF 393 > 100 µM | OVCAR-5 > 100 µM | MOLT-4 > 100 µM | A549 > 100 µM | UACC-257 > 100 µM | HL-60 3.93 µM

O/N=C1\CCCCC1C(NO)c1ccccc1 (configuration not stated)
inactive: HCC 2998 > 100 µM | NCI-H460 > 100 µM | SN12C > 100 µM | SNB-75 23.7 µM | HT-29 > 100 µM | LOX IMVI > 100 µM | ACHN > 100 µM | SF-539 > 100 µM | Malme-3M > 100 µM | A498 > 100 µM | RXF 393 > 100 µM | OVCAR-5 > 100 µM | MOLT-4 69.3 µM | A549 > 100 µM | UACC-257 > 100 µM | HL-60 57.7 µM

CN(C)CCCn1cnc2ncccc2c1=O
inactive: SR > 100 µM | HCC 2998 > 100 µM | NCI-H460 > 100 µM | SN12C > 100 µM | SNB-75 > 100 µM | HT-29 > 100 µM | LOX IMVI > 100 µM | ACHN > 100 µM | SF-539 > 100 µM | Malme-3M > 100 µM | RXF 393 > 100 µM | OVCAR-5 > 100 µM | MOLT-4 > 100 µM | A549 > 100 µM

CC(Oc1ccc(OCC2CCCCC2)cc1)C(N)=O (configuration not stated)
inactive: NCI-H460 > 100 µM | SN12C > 100 µM | SNB-75 > 100 µM | HT-29 > 100 µM | LOX IMVI > 100 µM | ACHN > 100 µM | SF-539 > 100 µM | Malme-3M > 100 µM | MOLT-4 > 100 µM | A549 > 100 µM | UACC-257 72.3 µM | HL-60 > 100 µM

Cc1nc(=O)n2c(C)n[nH]c2c1C(=O)O
inactive: SR > 100 µM | NCI-H460 > 100 µM | SN12C > 100 µM | HT-29 > 100 µM | LOX IMVI > 100 µM | ACHN > 100 µM | SF-539 > 100 µM | Malme-3M > 100 µM | RXF 393 31.1 µM | OVCAR-5 > 100 µM | MOLT-4 > 100 µM | HL-60 > 100 µM

CC1=C(C(=O)Nc2cc(F)c(F)cc2F)C(c2ccc([N+](=O)[O-])cc2)C(C(=O)Nc2cc(F)c(F)cc2F)=C(C)N1
inactive: HCC 2998 21.4 µM | NCI-H460 43.9 µM | SN12C 40.7 µM | SNB-75 8.26 µM | HT-29 34.1 µM | LOX IMVI 80.2 µM | ACHN 27.1 µM | SF-539 29.3 µM | Malme-3M 27.2 µM | A498 18.2 µM | RXF 393 10.6 µM | OVCAR-5 35 µM | MOLT-4 15 µM | A549 37.8 µM | UACC-257 28.7 µM | HL-60 11.2 µM

Cc1ccc(C(=O)CC2(O)C(=O)Nc3c(C)cc(Cl)cc32)cc1 (configuration not stated)
inactive: HCC 2998 > 100 µM | NCI-H460 > 100 µM | SN12C > 100 µM | SNB-75 47.9 µM | HT-29 > 100 µM | LOX IMVI > 100 µM | ACHN > 100 µM | Malme-3M > 100 µM | RXF 393 > 100 µM | OVCAR-5 > 100 µM | MOLT-4 59.4 µM | A549 > 100 µM | UACC-257 > 100 µM | HL-60 59.8 µM

CCOC(=O)C(Cc1c(C=O)[nH]c2ccccc12)(NC(=O)c1ccccc1)C(=O)OCC
inactive: SR > 100 µM | HCC 2998 12.2 µM | NCI-H460 24.3 µM | SN12C 13.2 µM | HT-29 16.4 µM | ACHN 14.4 µM | SF-539 16.3 µM | Malme-3M 17.7 µM | RXF 393 11 µM | OVCAR-5 20.5 µM | MOLT-4 6.65 µM | A549 19.1 µM | UACC-257 16.9 µM | HL-60 > 100 µM

c1ccc(CSc2nc3ccccc3nc2-c2cccs2)cc1
inactive: HCC 2998 > 100 µM | NCI-H460 > 100 µM | SN12C > 100 µM | SNB-75 > 100 µM | HT-29 > 100 µM | ACHN > 100 µM | SF-539 > 100 µM | Malme-3M > 100 µM | OVCAR-5 > 100 µM | MOLT-4 > 100 µM | A549 > 100 µM | UACC-257 > 100 µM | HL-60 > 100 µM

Cc1ccccc1NC(=O)c1cc(-c2ccc([N+](=O)[O-])cc2)nc(S)n1
inactive: HCC 2998 > 100 µM | NCI-H460 > 100 µM | SN12C > 100 µM | HT-29 > 100 µM | LOX IMVI > 100 µM | ACHN > 100 µM | SF-539 > 100 µM | Malme-3M > 100 µM | RXF 393 > 100 µM | OVCAR-5 > 100 µM | MOLT-4 > 100 µM | A549 > 100 µM | UACC-257 > 100 µM | HL-60 > 100 µM
